Assay results as given in patent US20050014766A1, “Use of n-(indolecarbonyl-)piperazine derivatives” (priority 2002, published 2005).

Legend:
[1] = Feeding experiment on Beagle hounds (body weight, feed consumption, behaviour and general state); format: in vivo
Description: The efficacy of the compounds of the formula I for the treatment of obesity can be determined in vivo as follows (cf. Example B): A certain dose or varying doses of the test compound is administered to one group of experimental animals over an extended period. The amount of feed consumed and the body weight of the experimental animals are recorded regularly. At the same time, the behaviour and general state of the animals are monitored in a manner known per se. Conclusions can be drawn on the suitability of the test compound for the treatment of obesity from the decrease in the body weight and the take-up of feed in the experimental period with an otherwise unchanged general state and in the absence of changes in behaviour. The test substance in the form of hard gelatine capsules produced as described in Example B7 is administered once daily over a period of 11 days to a group of Beagle hounds about 8 months old which had been dewormed in advance. The amount of feed consumed is determined daily by re-weighing the unconsumed feed, the body weight before (day 0), during (day 5) and after (day 12) the feeding experiment. At the same time, the behaviour and general state of the animals are monitored over the entire experimental period. Drinking water in unlimited amount is available to the dogs. […] The behaviour and general state of the dogs are not impaired in the experimental period by the administration of the test substance.

[2] = as above; format: in vivo; remark: listed apart in the source
[3] = Beagle hounds, once daily oral capsules over 11 days

Work on `Cl.N#Cc1c[nH]c2c(C(=O)N3CCN(CCc4ccc(F)cc4)CC3)cccc12` [(3-cyano-1H-indol-7-yl)[4-(4-fluoro-phenethyl)piperazin-1-yl]methanone, hydrochloride] yielded a body weight ([1]; Dog 8910 (male), day 0, before dosing) of 8.6 kg, a feed consumption ([1]; Dog 8910 (male), day 2, dose 10 mg/kg) of 320 g and a body weight ([1]; Dog 8910 (male), day 5, once daily capsules 3, 10, 30 mg/kg days 1-3, 100 mg/kg from day 4) of 8.6 kg. The feed consumption ([1]; Dog 8910 (male), day 6, dose 100 mg/kg) was 240 g, the feed consumption ([1]; Dog 8910 (male), day 10, dose 100 mg/kg) was 20 g and the body weight ([1]; Dog 8910 (male), day 12, after 3, 10, 30 mg/kg days 1-3 and 100 mg/kg days 4-11) was 7.8 kg. For the same compound, the feed consumption ([1]; Dog 8936 (female), day 6, dose 100 mg/kg) was 140 g, the “behaviour and general state of the dogs” value ([2]; Beagle hounds, experimental period, doses up to 100 mg/kg) was “not impaired” and the “body weight change (in words)” value [2, 3] was “significant reduction in body weight”. The “consumption of feed during the experiment (in words)” value [2, 3] was “increasingly restrict the consumption of feed”, the body weight ([2]; Dog 1201 (male), day 0, before dosing) was 6.8 kg and the feed consumption ([2]; Dog 1201 (male), day 1, no dose yet (dosing starts day 5)) was 440 g. It also gave a feed consumption ([2]; Dog 1201 (male), day 2, no dose yet (dosing starts day 5)) of 260 g, a feed consumption ([2]; Dog 1201 (male), day 3, no dose yet (dosing starts day 5)) of 400 g and a feed consumption ([2]; Dog 1201 (male), day 4, no dose yet (dosing starts day 5)) of 230 g. It also gave a feed consumption ([2]; Dog 1201 (male), day 5, dose 50 mg/kg) of 340 g, a body weight ([2]; Dog 1201 (male), day 5, first day of 50 mg/kg) of 7.1 kg and a feed consumption ([2]; Dog 1201 (male), day 6, dose 50 mg/kg) of 220 g. It also gave a feed consumption ([2]; Dog 1201 (male), day 7, dose 50 mg/kg) of 160 g, a feed consumption ([2]; Dog 1201 (male), day 8, dose 50 mg/kg) of 170 g and a feed consumption ([2]; Dog 1201 (male), day 9, dose 50 mg/kg) of 130 g. It also gave a feed consumption ([2]; Dog 1201 (male), day 10, dose 50 mg/kg) of 80 g, a feed consumption ([2]; Dog 1201 (male), day 11, dose 50 mg/kg) of 40 g and a body weight ([2]; Dog 1201 (male), day 12, after 50 mg/kg days 5-11) of 6.3 kg. For the same compound, the body weight ([2]; Dog 2164 (female), day 0, before dosing) was 6.1 kg, the feed consumption ([2]; Dog 2164 (female), day 1, no dose yet (dosing starts day 5)) was 310 g and the feed consumption ([2]; Dog 2164 (female), day 2, no dose yet (dosing starts day 5)) was 270 g. For the same compound, the feed consumption ([2]; Dog 2164 (female), day 3, no dose yet (dosing starts day 5)) was 280 g, the feed consumption ([2]; Dog 2164 (female), day 4, no dose yet (dosing starts day 5)) was 280 g and the feed consumption ([2]; Dog 2164 (female), day 5, dose 50 mg/kg) was 340 g. The body weight ([2]; Dog 2164 (female), day 5, first day of 50 mg/kg) was 5.9 kg, the feed consumption ([2]; Dog 2164 (female), day 6, dose 50 mg/kg) was 180 g and the feed consumption ([2]; Dog 2164 (female), day 7, dose 50 mg/kg) was 260 g. For the same compound, the feed consumption ([2]; Dog 2164 (female), day 8, dose 50 mg/kg) was 150 g, the feed consumption ([2]; Dog 2164 (female), day 9, dose 50 mg/kg) was 140 g and the feed consumption ([2]; Dog 2164 (female), day 10, dose 50 mg/kg) was 130 g. For the same compound, the feed consumption ([2]; Dog 2164 (female), day 11, dose 50 mg/kg) was 60 g, the body weight ([2]; Dog 2164 (female), day 12, after 50 mg/kg days 5-11) was 5.5 kg and the feed consumption ([2]; Dog 8910 (male), day 1, dose 3 mg/kg) was 380 g. For the same compound, the feed consumption ([2]; Dog 8910 (male), day 3, dose 30 mg/kg) was 370 g, the feed consumption ([2]; Dog 8910 (male), day 4, dose 100 mg/kg) was 320 g and the feed consumption ([2]; Dog 8910 (male), day 5, dose 100 mg/kg) was 250 g. The feed consumption ([2]; Dog 8910 (male), day 7, dose 100 mg/kg) was 60 g, the feed consumption ([2]; Dog 8910 (male), day 8, dose 100 mg/kg) was 60 g and the feed consumption ([2]; Dog 8910 (male), day 9, dose 100 mg/kg) was 40 g. The feed consumption ([2]; Dog 8910 (male), day 11, dose 100 mg/kg) was 90 g, the body weight ([2]; Dog 8936 (female), day 0, before dosing) was 7.5 kg and the feed consumption ([2]; Dog 8936 (female), day 1, dose 3 mg/kg) was 380 g. The feed consumption ([2]; Dog 8936 (female), day 2, dose 10 mg/kg) was 380 g, the feed consumption ([2]; Dog 8936 (female), day 3, dose 30 mg/kg) was 360 g and the feed consumption ([2]; Dog 8936 (female), day 4, dose 100 mg/kg) was 220 g. The feed consumption ([2]; Dog 8936 (female), day 5, dose 100 mg/kg) was 200 g, the body weight ([2]; Dog 8936 (female), day 5, once daily capsules 3, 10, 30 mg/kg days 1-3, 100 mg/kg from day 4) was 7.3 kg and the feed consumption ([2]; Dog 8936 (female), day 7, dose 100 mg/kg) was 80 g. The feed consumption ([2]; Dog 8936 (female), day 8, dose 100 mg/kg) was 30 g, the feed consumption ([2]; Dog 8936 (female), day 9, dose 100 mg/kg) was 30 g and the feed consumption ([2]; Dog 8936 (female), day 10, dose 100 mg/kg) was 70 g. The feed consumption ([2]; Dog 8936 (female), day 11, dose 100 mg/kg) was 10 g and the body weight ([2]; Dog 8936 (female), day 12, after 3, 10, 30 mg/kg days 1-3 and 100 mg/kg days 4-11) was 6.2 kg.
